Data from PubChem BioAssay AID2305 (GlaxoSmithKline (GSK), 2010).

The molecules below were run on P. falciparum 3D7 growth, pLDH absorbance (assay: P. falciparum 3D7 growth inhibition, dose response, strain 3D7 (AID 2305)).
Molecule COc1ccc(NC(=O)NC2CCN(CCCCCNC(=O)/C=C/c3ccc(Cl)c(Cl)c3)C2)c(OC)c1 (configuration not stated) has an IC50 of 820 nM.
O=C(N[C@H]1CCN(Cc2ccc(OC3CCN(Cc4ccccc4)CC3)c(Cl)c2)C1)c1ccc(Cl)c(Cl)c1 was tested, and the IC50 was 810 nM.
In the case of O=C(/C=C/c1ccc(Cl)cc1)NCCCCCN1CCCC(C(=O)Nc2ccc(Cl)c(Cl)c2)C1 (configuration not stated), the IC50 is reported as 830 nM.
With CC[C@H]1CN2CC[C@@H]1C[C@H]2[C@H](O)c1cc(N2CCC(O)(c3ccccc3)CC2)nc2ccc(OC)cc12 the IC50 was 90 nM.
Molecule O=C(/C=C/C=C/c1ccccc1)NCCCCCN1CCC(c2c[nH]c3ccccc23)CC1 has an IC50 of 1170 nM.
Work on Cc1cccc(OC2CCN(c3ncc(C(=O)NCCCN4CCCC4=O)cc3Cl)CC2)c1 yielded an IC50 of 180 nM.
With COc1cc(Cc2cnc(N)nc2N)cc(OCCCc2cc(OCc3ccccc3)no2)c1OC the IC50 was 1870 nM.
In the case of CC(=O)Nc1cc(C(=O)Nc2cccc(-c3cccc(-c4nc5ccc(C(F)(F)F)cc5[nH]4)c3)c2)ccc1C, the IC50 is reported as 220 nM.
CC[C@H](C)CNC(=O)c1cncc(-c2ccc(CN(C)C3CCN(C)CC3)cc2)c1 gave an IC50 of 990 nM.
COc1ccc(Cn2c(Nc3cccc(C(F)(F)F)c3)nc3cc(C(=O)NC(C)C)cnc32)cc1Cl was tested, and the IC50 was 970 nM.
With FC(F)(F)c1ccc2nccc(NCc3ccccc3)c2c1 the IC50 was 1150 nM.
NC1CCN(Cc2cccc(-c3csc(-c4nc5ccccc5[nH]4)c3)c2)C1 (configuration not stated) showed an IC50 of 890 nM.
CCS(=O)(=O)N1CCN(c2nc(-c3ccccc3)nc(COC)c2Cc2ccccc2F)CC1 gave an IC50 of 1450 nM.
Molecule Cc1ccccc1NC(=O)NC1CCN(CCCCCNC(=O)/C=C/c2ccc(Cl)c(Cl)c2)CC1 has an IC50 of 770 nM.
Work on CCOC(=O)N1CCN(CCCNc2c3ccccc3nc3ccccc23)CC1 yielded an IC50 of 1010 nM.
COc1cc(CS(C)(=O)=O)ccc1Nc1nccc(-c2c(-c3cccc(NC(=O)c4c(F)cccc4F)c3)nn3ccccc23)n1 was tested, and the IC50 was 970 nM.
Work on CN(CCc1ccccc1)c1ncc(-c2ccccc2CNCc2ccccc2O)cn1 yielded an IC50 of 1020 nM.
COc1ccccc1C1CCN(C2CCC(NC(=O)c3cc4cc(C(C)C)ccc4[nH]3)CC2)CC1 (configuration not stated) gave an IC50 of 850 nM.
For Cc1cc(-c2nc3cncc(-c4cccc(CN5CCCC5Cc5cccnc5)c4)c3n2C)nn1C (configuration not stated), the IC50 was 130 nM.
In the case of COc1ccc2nccc([C@@H](O)CN3CCC(NC(=O)/C=C/c4cccc(-c5ccccc5)c4)CC3)c2c1, the IC50 is reported as 250 nM.
With N#Cc1cccc(NC(=O)Nc2cccc(-c3cccc(-c4nc5ccccc5[nH]4)c3)c2)c1 the IC50 was 90 nM.
Work on O=C(NC1CCCCCC1)C1CCCN(C(=O)c2ccc(O)c(-c3ccc(Cl)c(Cl)c3)c2)C1 (configuration not stated) yielded an IC50 of 760 nM.
Cc1cccc2[nH]c(-c3ccc(-c4ccc(CNCCNC(=O)c5ccnn5C)cc4)cc3)nc12 gave an IC50 of 480 nM.
COc1cccc(-c2cc(-c3ccc(NC(=O)c4ccccc4)cc3)c3c(N)ncnc3n2)c1 showed an IC50 of 590 nM.
With CC(C)(C)C(=O)Oc1ccc(CC2NCCc3cc(OC(=O)C(C)(C)C)c(OC(=O)C(C)(C)C)cc32)cc1OC(=O)C(C)(C)C (configuration not stated) the IC50 was 420 nM.
In the case of CCN1CCC(N(Cc2ccc(-c3ccc(C(F)(F)F)cc3)cc2)C(=O)Cn2c(CCc3cccc(F)c3F)cc(=O)c3c2CCC3)CC1, the IC50 is reported as 970 nM.
For C=CCn1c(SCC(=O)Nc2cc(C)ccc2OC)nc2sc(C)cc2c1=O, the IC50 was 420 nM.
In the case of O=C(NC1CC1)c1ccc(N2CCCC(COc3ccccc3F)C2)nc1 (configuration not stated), the IC50 is reported as 900 nM.
Molecule COC(=O)c1ccc(C[C@@H](C)NC[C@H](O)c2cccc(OCc3ccccc3)c2)cc1 has an IC50 of 1160 nM.
CCN(CC)c1ccc2nc(N)nc(N)c2c1 was tested, and the IC50 was 70 nM.
Work on COc1ccccc1CCNc1nc(C)cc(NCCC(=O)Nc2ccccc2)n1 yielded an IC50 of 810 nM.
Molecule CCCN(c1ccc(C(F)(F)F)cc1[N+](=O)[O-])S(=O)(=O)C(c1ccccc1)c1ccc(C(F)(F)F)cc1[N+](=O)[O-] (configuration not stated) has an IC50 of 1220 nM.
COc1ccc2nccc([C@@H](O)CN3CCC(NC(=O)Cc4cccc5c(Br)cccc45)CC3)c2c1 gave an IC50 of 800 nM.
In the case of Cc1cc2c(cc1C(F)(F)F)N(C(=O)Nc1cccc(C(=O)NC3CCN(Cc4ccccc4)CC3)c1)CC2, the IC50 is reported as 910 nM.
Work on CCC(Cc1ccccc1)c1cc(O)c(Cc2ccc(-c3ccccc3)cc2)c(=O)o1 (configuration not stated) yielded an IC50 of 970 nM.
Work on CN1CCCN(Cc2ccc(-c3cccc(NC(=O)c4cccc(Cl)c4)c3)cc2)CC1 yielded an IC50 of 840 nM.
Cc1cccc2[nH]c(-c3ccc(-c4ccc(CN5CCC(CCN6CCCCC6)CC5)cc4)cc3)nc12 gave an IC50 of 140 nM.
With O=C(Nc1cccc(-c2cc(-c3c(Cl)cccc3Cl)no2)c1)c1cncc(-c2cccs2)c1 the IC50 was 950 nM.
COc1ccc(-c2nc3c4cc(I)ccc4c4ccccc4c3[nH]2)cc1 showed an IC50 of 1100 nM.
O=C(/C=C/c1ccc(Cl)c(Cl)c1)NC1CCC(CN2CCC(Cc3c[nH]c4ccccc34)CC2)CC1 (configuration not stated) was tested, and the IC50 was 890 nM.
Cc1ccccc1OCC(O)CN1CCC(C2CCN(CC(O)COc3ccccc3C)CC2)CC1 (configuration not stated) showed an IC50 of 310 nM.
CN(C)CCc1coc2ccc(C(=O)Nc3ccc(-c4ccc(O)cc4)cc3)cc12 showed an IC50 of 1080 nM.
In the case of Fc1cccc(COc2ccc(Nc3ncnc4ccc(-c5nnc(C(F)(F)F)o5)cc34)cc2Cl)c1, the IC50 is reported as 580 nM.
With Cc1ccc(NC(=O)N2CCN(CCCCCNC(=O)/C=C/c3ccc(Cl)c(Cl)c3)CC2)cc1C the IC50 was 1100 nM.
In the case of CC(Cc1ccc(CSC(C)C)cc1)NCC(O)c1cccc(Cl)c1 (configuration not stated), the IC50 is reported as 600 nM.
CCN(CC)CCCN(CCCN(CC)CC)c1cc(C)nc(Nc2ccc(Br)cc2)n1 showed an IC50 of 200 nM.
In the case of COc1ccc(NC(=O)Nc2cccc(-c3ccc(-c4nc5ccc(C(F)(F)F)cc5[nH]4)cc3)c2)cc1, the IC50 is reported as 450 nM.
